In the series the test system is Yucatan Micro Pig (YMP) skin. The experiment in a line: Skin permeability test, fluorescently-labeled insulin in skin extract and receiver solution, vertical Franz type diffusion cell (Examples 8, 12, 14, 18). The series is classed as in vitro ADME. As to the method:
Yucatan Micro Pig (YMP) skin (by Charles River Laboratories Japan, Inc.) stored at −80° C. was thawed at room temperature (roughly 25° C.), and was then subjected to the fat removal (to have a skin thickness of roughly 2 mm). Thus, the YMP skin of roughly 2 cm square was prepared.
To a receiver phase of the vertical Franz type diffusion cell (effective area: 0.785 cm^2), 5.0 mL of phosphate buffered saline (PBS of pH 7.4, stirred at 500 rpm) was added, and the above-described YMP skin (temperature of PBS on skin surface: 32.5° C.) was set. […]
The skin was taken out after 24 hours, and washed with the extractant [solution of PBS, acetonitrile, and methanol mixed at 2:1:1 (v/v/v)]. […] The extracted solution thus obtained was filtered using a PTFE filter (0.20 μm), and then, the quantity of the fluorescently-labeled insulin in the solution was determined using the fluorescence spectrometer LS-55 (manufactured by PerkinElmer, Inc.) (each calculated as the average value of three tests). The fluorescence spectrometer measurement was made at an excitation wavelength of 495 nm and a measurement wavelength of 521 nm. […]
The skin was taken out after 24 hours, and washed with the extractant [solution of PBS, acetonitrile, and methanol mixed at 2:1:1 (v/v/v)]. […] The fluorescence spectrometer measurement was made at an excitation wavelength of 495 nm and a measurement wavelength of 521 nm. […]

With polyoxyethylene lauryl ether, the “transdermal absorption enhancing effect of insulin” value is given as “no transdermal absorption enhancing effect”.

Source of the values: patent publication US11771645B2, “Transdermally absorbable base material containing lipid peptide compound” (KYUSHU UNIVERSITY, priority 2015, dated 2023).
